Results as given in patent US9527847B2, “Treatment of lupus, fibrotic conditions, and inflammatory myopathies and other disorders using PI3 kinase inhibitors” (INFINITY PHARMACEUTICALS, INC., priority 2012, dated 2016).
pEC50: −log10 of the molar value.

Tests used:
[1] = system: Murine B-cell proliferation; assay: Murine B-cell proliferation; format: cell-based; settings: Mus musculus
NZBWF1/J mice = assay: Murine NZB/W F1 lupus model; format: in vivo, mouse; settings: vs vehicle; for Glomerulonephritis score reduction: kidney histopathology; for Plasma anti-dsDNA IgG levels: days 49, 98, 140 (age 30, 37, 43 wk)
Text: Female NZBWF1/J mice (n=60) that were 8 weeks old on arrival and weighed approximately 35-51 grams (mean 42 g) at enrollment (mouse age approx. 23 weeks) were obtained from The Jackson Laboratory, Bar Harbor, Me. (stock number 100008). Animals were identified by a distinct number of ink marks at the base of the tail delineating animal number. After enrollment, all cages were labeled with protocol number, group number, and animal numbers.
Mice were terminated at age 43 weeks (day 140).
All dose solutions were prepared to deliver in 10 ml/kg (0.3 ml/30 g mouse).
Body weights were measured and recorded prior to study initiation for randomization, on the first day of dosing prior to dosing, and weekly throughout the study. Body weights were also recorded at scheduled termination points and as needed if test subjects appeared to decrease in weight by visual inspection. The animals were observed daily for significant clinical signs, morbidity and mortality.
Urine from each animal was tested weekly (beginning at mouse age 23 weeks) for proteinuria using Clinitech Multistick test strips (Bayer).
At necropsy, animals were anesthetized with isoflorane and bled via cardiac puncture for serum (for clinical chemistry analysis) and plasma (for Anti-dsDNA ELISA and PK). Terminal urine was collected and assessed. Spleens and kidneys (paired) were collected, weighed, and placed in 10% NBF. Serum obtained at necropsy was sent to Antech Diagnostics for analysis. Terminal plasma samples were split with half being used for Anti-dsDNA ELISA and the other half being shipped to the sponsor.
Anti-dsDNA IgG analysis was performed on days 0, 49, 98, and 140 (mouse age 23, 30, 37, and 43 weeks). Anti-dsDNA IgG levels were determined using an Anti-dsDNA IgG ELISA Kit (Alpha Diagnostic, kit #5120, lot #90903K4) following manufacturer's instructions.
Blood samples for clinical chemistry evaluation were collected at termination via cardiac puncture from Isoflurane anesthetized animals into serum separator microtainer tubes. Serum was sent to Antech Diagnostics for analysis.
The following parameters were measured: Albumin (ALB), Albumin: Globulin ratio (A/G), Alkaline phosphatase (ALK), Alanine aminotransferase (ALT), Aspartate aminotransferase (AST), Calcium (CA), Magnesium (Mg), Phosphorous (P), Globulin (GLOB), Electrolytes (Sodium (Na), Potassium (K), Chloride (Cl)), Gamma glutamyltransferase (GGT), Total bilirubin (TBILI), Amylase (AMY), Lipase (LIP), Osmolality, Triglycerides (TRIG), Total cholesterol (CHOL), Urea nitrogen (BUN), Creatinine (CREAT), Glucose (GLU), Total protein (TP), and Creatinine kinase (CPK).
Histopathologic evaluation was performed on kidneys. Kidneys from all surviving animals were examined microscopically by a board certified veterinary pathologist and observations were entered into a computer-assisted data retrieval system. Kidney sections were stained with Masson's Trichrome, or Hematoxylin and Eosin. To maintain blinding of the analysis, slides were labeled with the animal number with no reference to treatment group.
Kidneys were scored according to the following system (developed by Chan O, Madaio M P, Shlomchik M J. The roles of B cells in MRL/lpr murine lupus. Annals New York Academy of Sciences, 1997; 815:75-82), modified to suit the lesion severity.
• 0=Normal. • 1=Focal or multifocal, minimal to mild, early proliferative. • 2=Multifocal mild to moderate or mild diffuse proliferative. • 3=Diffuse moderate proliferative with or without multifocal severe areas. • 4=Marked diffuse proliferative, with crescents/sclerosis, multifocal protein casts present. • 5=Severe diffuse proliferative, with crescents/sclerosis, diffuse protein casts present. […]

R848 induced cytokines = assay: R848 induced cytokine production in PBMCs; format: cell-based, human
Method: These experiments were conducted using PBMCs.

PI3K-δ = PI3K-δ (Homo sapiens, UniProt O00329); assay: One exemplary assay, PI3K-δ activity; format: biochemical; settings: overall, several assays
[2] = serum at termination, Compound 292 (1, 5, 10 mg/kg), Dex 2 mg/kg

PI3K-δ, sequence (O00329 whole entry, species assumed): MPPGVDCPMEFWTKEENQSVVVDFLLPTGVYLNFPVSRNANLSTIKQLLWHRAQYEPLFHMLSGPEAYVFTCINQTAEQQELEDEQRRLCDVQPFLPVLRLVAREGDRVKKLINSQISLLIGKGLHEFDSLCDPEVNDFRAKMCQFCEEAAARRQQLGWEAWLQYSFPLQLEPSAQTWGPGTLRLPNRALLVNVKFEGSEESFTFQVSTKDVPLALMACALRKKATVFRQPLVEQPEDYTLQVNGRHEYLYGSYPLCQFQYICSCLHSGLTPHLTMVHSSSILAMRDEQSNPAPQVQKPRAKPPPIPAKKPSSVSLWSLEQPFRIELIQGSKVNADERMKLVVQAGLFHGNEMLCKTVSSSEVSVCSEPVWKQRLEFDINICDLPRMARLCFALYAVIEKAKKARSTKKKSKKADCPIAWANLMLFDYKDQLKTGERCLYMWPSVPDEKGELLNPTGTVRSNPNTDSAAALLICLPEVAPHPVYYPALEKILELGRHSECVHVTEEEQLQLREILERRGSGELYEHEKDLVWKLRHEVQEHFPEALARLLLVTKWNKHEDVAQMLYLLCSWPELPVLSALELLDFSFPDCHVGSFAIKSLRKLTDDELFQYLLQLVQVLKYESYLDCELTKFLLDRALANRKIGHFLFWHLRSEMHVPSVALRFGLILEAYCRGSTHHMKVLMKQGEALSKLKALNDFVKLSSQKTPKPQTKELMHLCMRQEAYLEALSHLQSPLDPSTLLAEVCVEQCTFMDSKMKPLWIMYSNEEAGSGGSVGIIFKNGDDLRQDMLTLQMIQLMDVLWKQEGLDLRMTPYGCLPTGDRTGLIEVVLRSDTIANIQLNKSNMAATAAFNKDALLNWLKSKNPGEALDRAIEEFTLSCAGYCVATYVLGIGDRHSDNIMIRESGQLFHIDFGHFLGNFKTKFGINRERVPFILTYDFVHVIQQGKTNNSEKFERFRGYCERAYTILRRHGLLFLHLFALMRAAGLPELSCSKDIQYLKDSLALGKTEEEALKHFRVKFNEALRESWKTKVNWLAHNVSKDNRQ
PI3K-δ, sequence (P27986 whole entry partner, species assumed): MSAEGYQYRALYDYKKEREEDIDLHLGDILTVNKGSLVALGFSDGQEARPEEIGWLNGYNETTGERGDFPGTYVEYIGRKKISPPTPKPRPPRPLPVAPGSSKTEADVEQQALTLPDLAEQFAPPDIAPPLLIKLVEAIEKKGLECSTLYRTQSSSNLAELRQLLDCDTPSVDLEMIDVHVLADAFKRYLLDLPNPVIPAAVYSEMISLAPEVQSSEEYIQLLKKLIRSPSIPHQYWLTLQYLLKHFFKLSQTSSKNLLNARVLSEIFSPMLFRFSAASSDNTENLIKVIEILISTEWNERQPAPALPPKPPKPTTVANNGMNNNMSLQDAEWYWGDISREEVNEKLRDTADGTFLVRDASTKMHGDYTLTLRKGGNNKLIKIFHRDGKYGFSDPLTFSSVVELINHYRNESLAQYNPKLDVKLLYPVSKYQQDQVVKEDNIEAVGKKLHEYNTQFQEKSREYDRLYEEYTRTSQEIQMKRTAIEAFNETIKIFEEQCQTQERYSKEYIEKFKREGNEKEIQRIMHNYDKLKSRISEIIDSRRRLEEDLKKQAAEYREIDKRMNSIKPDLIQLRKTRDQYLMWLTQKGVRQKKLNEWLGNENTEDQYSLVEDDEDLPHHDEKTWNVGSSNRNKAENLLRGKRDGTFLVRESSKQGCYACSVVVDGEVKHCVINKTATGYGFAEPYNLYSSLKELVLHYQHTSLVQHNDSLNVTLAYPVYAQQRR

Structure (SMILES): C[C@H](Nc1ncnc2[nH]cnc12)c1cc2cccc(Cl)c2c(=O)n1-c1ccccc1 [Compound 292]
- pEC50 [1]: 9.30
- Glomerulonephritis score reduction (NZBWF1/J mice; 1 mg/kg PO QD): 68%
- Urine protein levels (NZBWF1/J mice; 1 mg/kg PO QD, p<0.05 at mouse age 43 wk): significantly reduced
- Perivascular inflammation score reduction (NZBWF1/J mice; 1 mg/kg PO QD): 79%
- Protein cast severity reduction (NZBWF1/J mice; 1 mg/kg PO QD): 100%
- Spleen weight reduction (NZBWF1/J mice; 1 mg/kg PO QD): 39%
- Summed histopathology scores reduction (NZBWF1/J mice; 1 mg/kg PO QD): 67%
- Plasma anti-dsDNA IgG levels (NZBWF1/J mice; 5 mg/kg PO QD): significantly reduced
- Glomerulonephritis score reduction (NZBWF1/J mice; 5 mg/kg PO QD): 89%
- Urine protein levels (NZBWF1/J mice; 5 mg/kg PO QD, p<0.05 at mouse age 43 wk): significantly reduced
- Interstitial nephritis score reduction (NZBWF1/J mice; 5 mg/kg PO QD): 54%
- Perivascular inflammation score reduction (NZBWF1/J mice; 5 mg/kg PO QD): 90%
- Protein cast severity reduction (NZBWF1/J mice; 5 mg/kg PO QD): 100%
- Spleen weight reduction (NZBWF1/J mice; 5 mg/kg PO QD): 54%
- Summed histopathology scores reduction (NZBWF1/J mice; 5 mg/kg PO QD): 81%
- Plasma anti-dsDNA IgG levels (NZBWF1/J mice; 10 mg/kg PO QD): significantly reduced
- Glomerulonephritis score reduction (NZBWF1/J mice; 10 mg/kg PO QD): 100%
- Urine protein levels (NZBWF1/J mice; 10 mg/kg PO QD, p<0.05 at mouse age 42-43 wk): significantly reduced
- Interstitial nephritis score reduction (NZBWF1/J mice; 10 mg/kg PO QD): 67%
- Perivascular inflammation score reduction (NZBWF1/J mice; 10 mg/kg PO QD): 100%
- Protein cast severity reduction (NZBWF1/J mice; 10 mg/kg PO QD): 100%
- Spleen weight reduction (NZBWF1/J mice; 10 mg/kg PO QD): 55%
- Summed histopathology scores reduction (NZBWF1/J mice; 10 mg/kg PO QD): 91%
- Body weight loss (percent change from baseline) (NZBWF1/J mice; 1, 5 or 10 mg/kg PO QD 20 wk, over time): did not differ significantly
- Kidney weight (NZBWF1/J mice; 1, 5 or 10 mg/kg PO QD): did not differ significantly
- % of animals with proteinuria (urine protein levels >300 mg/dl) (NZBWF1/J mice; all doses (1, 5, or 10 mg/kg), animal age 43 weeks): significantly reduced
- Sodium (Na) (NZBWF1/J mice; serum at termination, Compound 292 1 mg/kg): significantly increased
- Amylase (AMY) (NZBWF1/J mice; serum at termination, Compound 292 5 mg/kg, Dex 2 mg/kg): significantly reduced
- Magnesium (Mg) (NZBWF1/J mice; serum at termination, Compound 292 10 mg/kg, Dex 2 mg/kg): significantly increased
- Aspartate aminotransferase (AST) (NZBWF1/J mice; serum at termination, Compound 292 (1, 5, 10 mg/kg)): significantly reduced
- Albumin (ALB) (NZBWF1/J mice; [2]): significantly increased
- Blood urea nitrogen (BUN) (NZBWF1/J mice; [2]): significantly reduced
- Calcium (CA) (NZBWF1/J mice; [2]): significantly increased
- Creatine kinase (CPK) (NZBWF1/J mice; [2]): significantly reduced
- Globulin (GLOB) (NZBWF1/J mice; [2]): significantly reduced
- Triglycerides (TRIG) (NZBWF1/J mice; [2]): significantly reduced
- R848 induced IFN-α (R848 induced cytokines): did not detectably affect
- R848 induced IL-1 (R848 induced cytokines): slightly inhibited
- R848 induced IL-6 (R848 induced cytokines): did not detectably affect
- R848 induced IL-8 (R848 induced cytokines): did not detectably affect
- R848 induced TNF-α (R848 induced cytokines): did not detectably affect
- PI3K-δ inhibited at lower dose compared to PI3K-γ, PI3K-β or PI3K-α (PI3K-δ): at least 10 fold
